Laboratory results as given in patent publication US7754913B2, “Synthesis of isotopically labeled alpha-keto acids and esters” (Cambridge Isotope Laboratories, Inc., priority 2006, dated 2010).

Tests used:
[1] = Shelf storage stability of [1-13C] pyruvic acid in water, 1H and 13C NMR spectra compared; format: physicochemical; settings: 0.025M in water; for Storage stability, Duration 12 weeks / Storage stability, Duration 17 weeks: NMR; for Shelf stability (NMR spectra unchanged): each of the samples, all conditions of Table 1
Experimental: Samples of isotopically labeled [1-^13C] pyruvic acid, having Formula VI and synthesized as discussed immediately below, were subjected to various conditions as depicted in Table 1, in order to establish the compound's shelf storage stability.
The resulting [1-^13C] pyruvic acid was tested as follows in Table 1:
^1H and ^13C NMR spectra of the distilled [1-^13C] pyruvic acid in water (0.025M) were acquired at the onset of the study and prior to exposing the samples to the various conditions specified in Table 1. ^1H and ^13C NMR spectra were again acquired for each of the samples after being exposed to the aforementioned conditions on a weekly basis for 12-weeks. The spectra acquired after exposure were compared visually and appeared to remain unchanged as compared with the spectra acquired prior to exposure, i.e. the spectra were as expected for [1-^13C] pyruvic acid in water. As such, it was concluded that each of the samples were shelf stable. Similarly, ^1H and ^13C NMR spectra acquired after 17-weeks of exposure remained unchanged as compared with the spectra acquired prior to exposure.

[2] = cited from earlier work
[3] = Concentration studies: stability of pyruvic acid solutions in water at higher concentrations; format: physicochemical; settings: each of the concentrations of Table 2; light for 6-weeks; about 22° C. to about 26° C.
Experimental: Each of these commercial solutions were subjected to light for 6-weeks at temperatures ranging from about 22° C. to about 26° C. At each of the concentrations listed below, it was discovered that the pyruvic acid solutions were stable.

[4] = Sample 3, Room temperature (about 22° C. to about 26° C.), Dark
[5] = Sample 4, Room temperature (about 22° C. to about 26° C.), Light

SMILES	Storage stability, Duration 12 weeks ([1]; Sample 1, −10° C., Dark)	Storage stability, Duration 17 weeks ([1]; Sample 1, −10° C., Dark)	Storage stability, Duration 12 weeks ([1]; Sample 2, 4° C., Dark)	Storage stability, Duration 17 weeks ([1]; Sample 2, 4° C., Dark)	Storage stability, Duration 12 weeks [1, 4]	Storage stability, Duration 17 weeks [1, 4]	Storage stability, Duration 12 weeks [1, 5]	Storage stability, Duration 17 weeks [1, 5]	Shelf stability (NMR spectra unchanged) ([1]; after 17-weeks)	Shelf stability (NMR spectra unchanged) ([1]; weekly for 12-weeks)	Solubility in water [2]	Stability of solutions in water [3]
CC(=O)[13C](=O)O [[1-^13C] pyruvic acid]	Stable	Stable	Stable	Stable	Stable	Stable	Stable	Stable	shelf stable	shelf stable		
CC(=O)C(=O)O [Pyruvic acid, 2-oxopropanoic acid, reference compound]											soluble	stable
